Laboratory results taken from patent US8518945B2, “Pyrrolopyrazine kinase inhibitors” (Hoffmann-La Roche Inc., priority 2010, dated 2013).

target: T1, h-jak3(810-1124) (JAK3: Recombinant human kinase domain) (Homo sapiens, UniProt P52333); test: Determination of IC50 of Janus Kinase (JAK) inhibition: JAK3 radioactive end-point 33P-ATP kinase assay; format: biochemical; conditions: no additive; ATP 1.5 uM, peptide 50 uM, 20 minutes, room temperature; read-out: Ic50 h-jak3(810-1124)-sf9-c: no additive
T1 construct: jak3(810- 1124)-sf9-c; made in house; host or cells: Sf9
T1 sequence (P52333 810-1124): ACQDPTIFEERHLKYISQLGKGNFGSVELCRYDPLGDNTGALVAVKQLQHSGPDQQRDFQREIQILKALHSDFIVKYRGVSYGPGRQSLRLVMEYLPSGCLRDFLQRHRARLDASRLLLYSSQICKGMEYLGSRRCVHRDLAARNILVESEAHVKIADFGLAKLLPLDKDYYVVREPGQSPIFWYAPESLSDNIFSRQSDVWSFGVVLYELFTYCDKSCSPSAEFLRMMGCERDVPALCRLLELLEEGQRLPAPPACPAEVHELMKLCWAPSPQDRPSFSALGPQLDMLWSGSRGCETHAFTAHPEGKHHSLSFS

IC50 [nM]	Compound
1.37	CC[C@H](C)[C@@H](NC(=O)c1c[nH]c2ncc(C3CC3)nc12)C(=O)N1CCC(C#N)CC1 [Example I-124, 2-Cyclopropyl-5H-pyrrolo[2,3-b]pyrazine-7-carboxylic acid [(1R,2S)-1-(4-cyano-piperidine-1-carbonyl)-2-methyl-butyl]-amide]
8.02	C[C@@H](NC(=O)c1c[nH]c2ncc(C3CC3)nc12)C(=O)N1CCC(C#N)C1 (stereo partly drawn) [Example I-14, 2-Cyclopropyl-5H-pyrrolo[2,3-b]pyrazine-7-carboxylic acid [(R)-2-(3-cyano-pyrrolidin-1-yl)-1-methyl-2-oxo-ethyl]-amide]
≤ 0.32	N#CC1CN(C(=O)[C@H](NC(=O)c2c[nH]c3ncc(-c4ccccc4)nc23)C2CC2)C1 [Example I-166, 2-Phenyl-5H-pyrrolo[2,3-b]pyrazine-7-carboxylic acid [(R)-2-(3-cyano-azetidin-1-yl)-1-cyclopropyl-2-oxo-ethyl]-amide]
0.42	N#CC1CCN(C(=O)[C@H](NC(=O)c2c[nH]c3ncc(C4CC4)nc23)C2CC2)CC1 [Example I-61, 2-Cyclopropyl-5H-pyrrolo[2,3-b]pyrazine-7-carboxylic acid [(R)-2-(4-cyano-piperidin-1-yl)-1-cyclopropyl-2-oxo-ethyl]-amide]
≤ 0.32	CC(=O)N1CCN(c2ccc(-c3cnc4[nH]cc(C(=O)N[C@@H](C(=O)N5CC(C#N)C5)C5CC5)c4n3)cc2)CC1 [Example I-161, 2-[4-(4-Acetyl-piperazin-1-yl)-phenyl]-5H-pyrrolo[2,3-b]pyrazine-7-carboxylic acid [(R)-2-(3-cyano-azetidin-1-yl)-1-cyclopropyl-2-oxo-ethyl]-amide]
2.18	CC(C)(C)[C@@H](NC(=O)c1c[nH]c2ncc(C3CC3)nc12)C(=O)N1CCCC1 [Example I-10, 2-Cyclopropyl-5H-pyrrolo[2,3-b]pyrazine-7-carboxylic acid [(R)-2,2-dimethyl-1-(pyrrolidine-1-carbonyl)-propyl]-amide]
0.78	COc1ccnc2cc(-c3cnc4[nH]cc(C(=O)N[C@@H](C(=O)N5CC(C#N)C5)C5CC5)c4n3)sc12 [Example I-99, 2-(7-Methoxy-thieno[3,2-b]pyridin-2-yl)-5H-pyrrolo[2,3-b]pyrazine-7-carboxylic acid [(R)-2-(3-cyano-azetidin-1-yl)-1-cyclopropyl-2-oxo-ethyl]-amide]
0.61	C[C@@H](NC(=O)c1c[nH]c2ncc(-c3cccc(N4CCCC4)c3)nc12)C(=O)N1CC(C#N)C1 [Example I-109, 2-(3-Pyrrolidin-1-yl-phenyl)-5H-pyrrolo[2,3-b]pyrazine-7-carboxylic acid [(R)-2-(3-cyano-azetidin-1-yl)-1-methyl-2-oxo-ethyl]-amide]
72.8	C[C@@H](NC(=O)c1c[nH]c2ncc(C3CC3)nc12)C(=O)N1CC2(COC2)C1 [Example I-24, 2-Cyclopropyl-5H-pyrrolo[2,3-b]pyrazine-7-carboxylic acid [(R)-1-methyl-2-(2-oxa-6-aza-spiro[3.3]hept-6-yl)-2-oxo-ethyl]-amide]
6.05	N#CC1CCN(C(=O)[C@H](NC(=O)c2c[nH]c3ncc(-c4cn(-c5ccccc5)nn4)nc23)C2CC2)CC1 [Example I-108, 2-(1-Phenyl-1H-[1,2,3]triazol-4-yl)-5H-pyrrolo[2,3-b]pyrazine-7-carboxylic acid [(R)-2-(4-cyano-piperidin-1-yl)-1-cyclopropyl-2-oxo-ethyl]-amide]
2.81	CC(C)(C)[C@@H](NC(=O)c1c[nH]c2ncc(-c3ccc(C(F)(F)F)cc3)nc12)C(=O)N1CCC(C#N)CC1 [Example I-128, 2-(4-Trifluoromethyl-phenyl)-5H-pyrrolo[2,3-b]pyrazine-7-carboxylic acid [(R)-1-(4-cyano-piperidine-1-carbonyl)-2,2-dimethyl-propyl]-amide]
0.38	N#CC1CN(C(=O)[C@H](NC(=O)c2c[nH]c3ncc(-c4ccc(C(F)(F)F)cc4)nc23)C2CC2)C1 [Example I-160, 2-(4-Trifluoromethyl-phenyl)-5H-pyrrolo[2,3-b]pyrazine-7-carboxylic acid [(R)-2-(3-cyano-azetidin-1-yl)-1-cyclopropyl-2-oxo-ethyl]-amide]
16.3	N#CC1CCN(C(=O)[C@H](NC(=O)c2c[nH]c3ncc(C4CC4)nc23)c2ccccc2)CC1 [Example I-114, 2-Cyclopropyl-5H-pyrrolo[2,3-b]pyrazine-7-carboxylic acid [(R)-2-(4-cyano-piperidin-1-yl)-2-oxo-1-phenyl-ethyl]-amide]
12.3	CC(C)[C@@H](NC(=O)c1c[nH]c2ncc(C3CC3)nc12)C(=O)N1CCOCC1 [Example I-8, 2-Cyclopropyl-5H-pyrrolo[2,3-b]pyrazine-7-carboxylic acid [(R)-2-methyl-1-(morpholine-4-carbonyl)-propyl]-amide]
2.58	C[C@@H](NC(=O)c1c[nH]c2ncc(-c3cc(OCC4CC4)ccn3)nc12)C(=O)N1CC(C#N)C1 [Example I-131, 2-(4-Cyclopropylmethoxy-pyridin-2-yl)-5H-pyrrolo[2,3-b]pyrazine-7-carboxylic acid [(R)-2-(3-cyano-azetidin-1-yl)-1-methyl-2-oxo-ethyl]-amide]

Continued, compound first:

Compound	IC50 [nM]
O=C(N[C@@H](C(=O)N1C[C@@H]2[C@@H](CO)[C@@H]2C1)C1CC1)c1c[nH]c2ncc(C3CC3)nc12 [Example I-86, 2-Cyclopropyl-5H-pyrrolo[2,3-b]pyrazine-7-carboxylic acid [(R)-1-cyclopropyl-2-((1S,5R,6R)-6-hydroxymethyl-3-aza-bicyclo[3.1.0]hex-3-yl)-2-oxo-ethyl]-amide]	4.02
CC(C)(C)[C@@H](NC(=O)c1c[nH]c2ncc(OC3CCCCC3)nc12)C(=O)N1CCC(C#N)CC1 [Example I-90, 2-Cyclohexyloxy-5H-pyrrolo[2,3-b]pyrazine-7-carboxylic acid [(R)-1-(4-cyano-piperidine-1-carbonyl)-2,2-dimethyl-propyl]-amide]	9.73
N#CC1CCN(C(=O)[C@@H](Cc2ccccc2)NC(=O)c2c[nH]c3ncc(C4CC4)nc23)CC1 [Example I-48, 2-Cyclopropyl-5H-pyrrolo[2,3-b]pyrazine-7-carboxylic acid [(R)-1-benzyl-2-(4-cyano-piperidin-1-yl)-2-oxo-ethyl]-amide]	0.6
CCn1cc(-c2cnc3[nH]cc(C(=O)N[C@@H](C(=O)N4CC(C)(O)C4)C4CC4)c3n2)cn1 [Example I-148, 2-(1-Ethyl-1H-pyrazol-4-yl)-5H-pyrrolo[2,3-b]pyrazine-7-carboxylic acid [(R)-1-cyclopropyl-2-(3-hydroxy-3-methyl-azetidin-1-yl)-2-oxo-ethyl]-amide]	1.98
COc1cc(-c2cnc3[nH]cc(C(=O)N[C@@H](C(=O)N4CCC(C#N)CC4)C(C)(C)C)c3n2)cc(OC)c1OC [Example I-64, 2-(3,4,5-Trimethoxy-phenyl)-5H-pyrrolo[2,3-b]pyrazine-7-carboxylic acid [(R)-1-(4-cyano-piperidine-1-carbonyl)-2,2-dimethyl-propyl]-amide]	94.9
CC(C)C[C@@H](NC(=O)c1c[nH]c2ncc(-c3cnn(C)c3)nc12)C(=O)N1CC(C#N)C1 [Example I-69, 2-(1-Methyl-1H-pyrazol-4-yl)-5H-pyrrolo[2,3-b]pyrazine-7-carboxylic acid [(R)-1-(3-cyano-azetidine-1-carbonyl)-3-methyl-butyl]-amide]	≤ 0.32
N#CC1CCN(C(=O)[C@H](NC(=O)c2c[nH]c3ncc(-c4cc(-c5cccs5)ccn4)nc23)C2CC2)CC1 [Example I-154, 2-(4-Thiophen-2-yl-pyridin-2-yl)-5H-pyrrolo[2,3-b]pyrazine-7-carboxylic acid [(R)-2-(4-cyano-piperidin-1-yl)-1-cyclopropyl-2-oxo-ethyl]-amide]	3.06
CCn1cc(-c2cnc3[nH]cc(C(=O)N[C@@H](C(=O)N4CCC(C#N)CC4)C4CC4)c3n2)cn1 [Example I-71, 2-(1-Ethyl-1H-pyrazol-4-yl)-5H-pyrrolo[2,3-b]pyrazine-7-carboxylic acid [(R)-2-(4-cyano-piperidin-1-yl)-1-cyclopropyl-2-oxo-ethyl]-amide]	3.92
N#CC1CN(C(=O)[C@H](NC(=O)c2c[nH]c3ncc(-c4cn(-c5cc(F)ccc5F)cn4)nc23)C2CC2)C1 [Example I-132, 2-[1-(2,5-Difluoro-phenyl)-1H-imidazol-4-yl]-5H-pyrrolo[2,3-b]pyrazine-7-carboxylic acid [(R)-2-(3-cyano-azetidin-1-yl)-1-cyclopropyl-2-oxo-ethyl]-amide]	0.49
CC(C)NC(=O)c1cccc(-c2cnc3[nH]cc(C(=O)N[C@H](C)C(=O)N4CC(C#N)C4)c3n2)c1 [Example I-111, 2-(3-Isopropylcarbamoyl-phenyl)-5H-pyrrolo[2,3-b]pyrazine-7-carboxylic acid [(R)-2-(3-cyano-azetidin-1-yl)-1-methyl-2-oxo-ethyl]-amide]	5.71
CCC1(C#N)CN(C(=O)[C@H](NC(=O)c2c[nH]c3ncc(-c4cnn(C)c4)nc23)C2CC2)C1 [Example I-151, 2-(1-Methyl-1H-pyrazol-4-yl)-5H-pyrrolo[2,3-b]pyrazine-7-carboxylic acid [(R)-2-(3-cyano-3-ethyl-azetidin-1-yl)-1-cyclopropyl-2-oxo-ethyl]-amide]	≤ 0.32
N#CC1CN(C(=O)[C@H](NC(=O)c2c[nH]c3ncc(N4Cc5c(Cl)cccc5C4=O)nc23)C2CC2)C1 [Example I-95, 2-(4-Chloro-1-oxo-1,3-dihydro-isoindol-2-yl)-5H-pyrrolo[2,3-b]pyrazine-7-carboxylic acid [(R)-2-(3-cyano-azetidin-1-yl)-1-cyclopropyl-2-oxo-ethyl]-amide]	2.73
CCn1cc(-c2cnc3[nH]cc(C(=O)N[C@@H](C(=O)N4CCC(F)(F)C4)C4CC4)c3n2)cn1 [Example I-139, 2-(1-Ethyl-1H-pyrazol-4-yl)-5H-pyrrolo[2,3-b]pyrazine-7-carboxylic acid [(R)-1-cyclopropyl-2-(3,3-difluoro-pyrrolidin-1-yl)-2-oxo-ethyl]-amide]	≤ 0.32
